Laboratory results: patent US7576086B2, “Aralkyl-alcohol peiperazine derivatives and their uses as antidepressant” (Shanghai Institute of Pharmaceutical Industry, priority 2002, dated 2009)

Experiments:
[1] = test system: Brain Synaptosome Uptake of NA; assay: Inhibition of [3H]-NA uptake by brain synaptosomes; format: biochemical, rats; settings: 0.1 mmol/L; rat frontal cortex synaptosomes; inhibited ratio by Desipramine counts 100%
Excerpt: (§1) The trial of uptaking the mono-amines neurotransmitter by synaptosomes is now one of the common method to study the central nervous pharmacology. This method is not only used to study the action mechanism of the medicament, but also to look for new antidepressant drugs which act on this tache. […] The method is recounted as follows:
(§2) (1). Preparation of synaptosomes. According to the described method by literatures (a. Biochem Pharmacol 1973, 22: 311-322, b. Methods in Neurochemistry, Vol. 2, New York: Marcel Dakker, Inc, 1972, 1-52), rats were decapitated, the brains rapidly excised, and frontal cortex dissected out on ice-cold saline (4° C.). The 3 g tissue was homogenized in 30 ml of ice-cold 0.32M sucrose and then centrifuged (1500 g) for 10 min (4° C.). The pellet was discarded and the supernatant centrifuged (20000 g) for 30 min (4° C.). After refined, the pellet was resuspended in buffer and immediately used. Protein content was deter mined with kit of total protein.
(§3) (2). Uptake of 5-HT. According to the described method by literatures (Br J Pharmacol, 1997, 122: 302-306; b. 1992, 105: 147-151), in the tubes, 1.0 ml artificial cerebral fluid, 20 μl suspension of synaptosomes and 10 μl solution of compound were added. After mixing, the tubes were incubated 5 min in 37° C. Uptake was started by addition of 10 μl [^3H]-5-HT or [^3H]-NA (300 nM), after another mixing, the tubes were incubated again 5 min in 37° C. The reaction was stopped by cooling the tubes in ice, the samples were then filtered through glass fibre filters and washed twice with artificial cerebral fluid. After drying in 60-70° C., the filter membranes were put into scintillation tubes. Filter-bound radioactivity was counted by scintillation spectrometry. The difference in [^3H]-5-HT or [^3H]-NA at 37° C. and 0° C. was taken as a measure of active uptake.

mouse [2] = assay: Tail suspension test of behavioural despair; format: in vivo; settings: control 89.7±38.27
Method: (§4) Using the tail suspension test of “behavioural despair” and the mouse forced swimming test, and choosing Desipra mine as control medicament, to study the primary antidepressant effect of IV-19 that has the strong inhibited effect for both uptake of 5-HT and NA. The results are as follows:
(1). In the tail suspension test, IV-19 can diminish obviously the immobile times of mouse due to despair. The effect induced by 50 mg/kg IV-19 (20.2±16.05 sec) is the same as 10 mg/kg Desipra mine (27.5±21.93 sec), but a significant difference occurs when comparing with control (89.7±38.27).

mouse [3] = assay: Mouse forced swimming test; format: in vivo; settings: control 93.4±27.36
Method: as §4
(2). In the mouse forced swimming test, IV-19 also can diminish obviously the immobile times of mouse in water due to despair. As the results of tail suspension test, the effect induced by 50 mg/kg IV-19 (46.3±30.2 sec) is the same as 10 mg/kg Desipra mine (46±27.36 sec), but a significant difference occurs when comparing with control (93.4±27.36).

[4] = test system: Brain Synaptosome Uptake of 5-HT; assay: Inhibition of [3H]-5-HT uptake by brain synaptosomes; format: biochemical, rats; settings: 0.1 mmol/L; rat frontal cortex synaptosomes; inhibited ratio by Fluoxetine counts 100%
Excerpt: as §1, §2, §3

mice = assay: Acute toxicity; format: in vivo; settings: p.o. in mice, calculated with Bliss
[5] = test system: S. Typhimurium TA97, TA98, TA100 and TA102; assay: Bacterial reverse-mutation assay (Ames TS); format: cell-based
Excerpt: 4. Bacterial reverse-mutation assay (Ames TS) of IV-19
Bacillus: S. Typhimurium TA97, TA98, TA100 and TA102
All tested doses didn't induce the evident increase of revertants, Ames TS of […] is negative.

Compound | Inhibited ratio of uptake for NA(%) [1] | Inhibited ratio of uptake for 5-HT(%) [4] | also measured
CNCCCN1c2ccccc2CCc2ccccc21 [Desipra mine, reference compound] | 100% | – | immobile times of mouse, tail suspension test (mouse [2]; 10 mg/kg): 27.5 ± 21.93 s; immobile times of mouse in water, forced swimming test (mouse [3]; 10 mg/kg): 46 ± 27.36 s
Cl.Cl.OC(c1ccccc1)C(c1ccccc1)N1CCN(Cc2ccccc2)CC1 (centres unmarked) [IV-8, N^1-benzyl-N^4-[(1,2-diphenyl)ethyl-2-ol] piperazine dihydrochloride] | 104% | <10% | –
Cl.Cl.OC(CN1CCN(Cc2ccc(F)cc2)CC1)c1ccc(Cl)cc1 (centres unmarked) [IV-11, N^1-(4-fluorobenzyl)-N^4-[2-(4-chlorophenyl)ethyl-2-ol] piperazine dihydrochloride] | 101% | 81% | –
COc1ccc2cc(C(O)C(C)N3CCN(c4cccc(Cl)c4)CC3)ccc2c1Cl.Cl.Cl (centres unmarked) [IV-17, N^1-(3-chlorophenyl)-N^4-[1-(5-chloro-6-methoxyl-naphthalen-2-yl)-propane-2-yl-1-ol] piperazine dihydrochloride] | 30% | 99% | –
COc1ccc2cc(C(O)C(C)N3CCN(CC(O)c4ccccc4)CC3)ccc2c1Cl.Cl.Cl (centres unmarked) [IV-18, N^1-(2-phenylethyl-2-ol)-N^4-[1-(5-chloro-6-methoxyl-naphthalen-2-yl)-propane-2-yl-1-ol] piperazine dihydrochloride] | 23% | 127% | –
COc1ccc2cc(C(O)C(C)N3CCN(Cc4ccc([N+](=O)[O-])cc4)CC3)ccc2c1Cl.Cl.Cl (centres unmarked) [IV-20, N^1-(4-nitrobenzyl)-N^4-[1-(5-chloro-6-methoxyl-naphthalen-2-yl)-propane-2-yl-1-ol] piperazine dihydrochloride] | 108% | 110% | –
COc1cc(CN2CCN(C(C)C(O)c3ccc4c(Cl)c(OC)ccc4c3)CC2)cc(OC)c1OC.Cl.Cl (centres unmarked) [IV-22, N^1-(3,4,5-trimethoxybenzyl)-N^4-[1-(5-chloro-6-methoxyl-naphthalen-2-yl)-propane-2-yl-1-ol] piperazine dihydrochloride] | 77% | 116% | –
N^1-(4-chlorobenzyl)-N^4-(phenylpropane-2-yl-3-ol) piperazine dihydrochloride [IV-2] | 62% | 82% | –
N^1-(4-fluorobenzyl)-N^4-(2-phenylethyl-2-ol) piperazine dihydrochloride [IV-6] | 107% | 79% | –
N^1-(4-nitrobenzyl)-N^4-(2-phenylethyl-2-ol) piperazine dihydrochloride [IV-26] | 80% | 63% | –
N^1-(R-1-phenylethyl)-N^4-[1-(5-chloro-6-methoxyl-naphthalen-2-yl)-propane-2-yl-1-ol] piperazine dihydrochloride [IV-35] | 58% | 107% | –
N^1-(S-1-phenylethyl)-N^4-[1-(5-chloro-6-methoxyl-naphthalen-2-yl)-propane-2-yl-1-ol] piperazine dihydrochloride [IV-34] | 10% | 108% | –
N^1-benzyl-N^4-[1-(5-chloro-6-methoxyl-naphthalen-2-yl)-propane-2-yl-1-ol] piperazine dihydrochloride [IV-19] | 140% | 114% | immobile times of mouse, tail suspension test (mouse [2]; 50 mg/kg): 20.2 ± 16.05 s; immobile times of mouse in water, forced swimming test (mouse [3]; 50 mg/kg): 46.3 ± 30.2 s; LD50 (mice): about 1 g/kg; Ames TS result (increase of revertants) ([5]; TA97, TA98, TA100, TA102, without S9 and with S9, all tested doses): negative; inhibitory effect for the growth of bacteria ([5]; TA97, with S9, 5000 μg/utensil): inhibitory effect; inhibitory effect for the growth of bacteria ([5]; TA98, without S9, 5000 μg/utensil): inhibitory effect
N^1-benzyl-N^4-[2-(4-chlorophenyl)ethyl-2-ol] piperazine dihydrochloride [IV-4] | 51% | 85% | –
